# Assay results taken from the supplement of paper PMC10307832.
# Assays:
# Test in all cases: relative viability (nuclei count vs DMSO), 5 days (fraction); higher = more cells survive
# [1] = compound: CN(C)CC1=CC(=CC=C1)N=C(C2=CC=CC=C2)C3=C(NC4=C3C=CC(=C4)C(=O)N(C)C)O + N=C(N)NC(=N)NCCc1ccccc1 [Phenformin] (partner 250 µM)
# Procedure, shortened: (§1)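 The day after seeding in 1536-well plates, lung cancer cell lines were treated by pin tool with a single drug, or with a fixed anchor-drug dose together with five library-drug doses (not always all listed) in √10 steps. After 5 days, a combined fix-and-stain solution (final 0.05% Triton X-100, 1% formaldehyde, 1 ug/ml Hoechst) was added. Nuclei counted on 4× images gave relative viability as treated counts over vehicle counts, reported as the median of duplicate plates.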
# [2] = compound: CN(C)CC1=CC(=CC=C1)N=C(C2=CC=CC=C2)C3=C(NC4=C3C=CC(=C4)C(=O)N(C)C)O + C[C@@H](Oc1cc(-c2cnn(C3CCNCC3)c2)cnc1N)c1c(Cl)ccc(F)c1Cl [Crizotinib] (partner 1 µM)
# Procedure, shortened: as §1
# [3] = compound: CN(C)CC1=CC(=CC=C1)N=C(C2=CC=CC=C2)C3=C(NC4=C3C=CC(=C4)C(=O)N(C)C)O + Nc1ncn([C@H]2C[C@H](O)[C@@H](CO)O2)c(=O)n1 [Decitabine] (partner 2 µM)
# Procedure, shortened: as §1
# [4] = compound: CN(C)CC1=CC(=CC=C1)N=C(C2=CC=CC=C2)C3=C(NC4=C3C=CC(=C4)C(=O)N(C)C)O + CC1(C)CCC(c2ccc(Cl)cc2)=C(CN2CCN(c3ccc(C(=O)NS(=O)(=O)c4ccc(N[C@H](CCN5CCOCC5)CSc5ccccc5)c(S(=O)(=O)C(F)(F)F)c4)cc3)CC2)C1 [Navitoclax] (partner 0.5 µM)
# Procedure, shortened: as §1
Cell Line,relative viability ([1]; first compound 0.08 µM),relative viability ([1]; first compound 0.253 µM),relative viability ([1]; first compound 0.8 µM),relative viability ([1]; first compound 2.53 µM),relative viability ([1]; first compound 8 µM),relative viability ([2]; first compound 0.08 µM),relative viability ([2]; first compound 0.253 µM),relative viability ([2]; first compound 0.8 µM),relative viability ([2]; first compound 8 µM),relative viability ([3]; first compound 0.08 µM),relative viability ([3]; first compound 0.253 µM),relative viability ([3]; first compound 0.8 µM),relative viability ([3]; first compound 2.53 µM),relative viability ([3]; first compound 8 µM),relative viability ([4]; first compound 0.08 µM),relative viability ([4]; first compound 0.253 µM),relative viability ([4]; first compound 0.8 µM),relative viability ([4]; first compound 8 µM),relative viability ([2]; first compound 2.53 µM),relative viability ([4]; first compound 2.53 µM)
ChaGo-K-1,0.495,0.507,0.479,0.436,0.433,1.18,1.1,1.1,1.11,0.524,0.516,0.523,0.418,0.485,1.16,1.17,1.27,1,–,–
EKVX,0.239,0.251,0.221,0.247,0.241,0.842,0.921,1.03,0.981,0.41,0.321,–,0.36,0.34,0.908,0.82,0.956,1,0.879,0.885
EMC-BAC-2,0.496,0.506,0.504,0.478,0.55,0.725,0.772,0.804,0.681,1.15,0.996,0.992,0.817,1.01,1.13,1.15,1.17,1.1,0.753,1.18
EPLC-272H,0.323,0.283,0.226,0.302,0.347,0.892,0.899,0.696,0.8,0.39,0.422,0.297,0.471,0.383,1.35,1.08,0.913,1.11,0.87,1.14
H3255,0.44,0.356,0.338,0.392,0.371,0.958,0.782,0.756,0.85,0.599,0.605,–,0.586,0.593,0.608,0.457,0.514,0.552,0.795,0.545
HARA,0.413,0.454,0.384,0.412,0.373,1.02,1.02,1.05,1.11,0.452,0.595,0.537,0.554,0.443,1.14,1.14,1.18,1.13,1.02,1.15
HCC-15,0.48,0.462,0.503,0.419,0.431,0.778,0.832,0.882,0.888,0.707,0.636,0.784,0.63,0.617,0.708,0.705,0.726,0.667,0.889,0.731
HCC-44,0.179,0.4,0.185,0.192,0.176,0.801,0.752,0.785,0.89,0.989,0.94,0.941,0.919,0.968,0.948,0.95,0.942,0.994,0.727,0.995
